# Results from the NIST ThermoML archive (doi:10.1021/je400029t).
# ± gives the expanded uncertainty stated by the source.
# Assays:
# [1] = Crystal; DTA
# [2] = Molar enthalpy of transition or fusion; conditions: Crystal; DSC
compound,measurement,setting,value
"COc1ccc(C(=O)O)cc1OC [3,4-dimethoxybenzoic acid]",Normal melting temperature,[1],179.97 ± 0.53 °C
same,Molar enthalpy of transition or fusion,[2],7.07 ± 0.311 kcal/mol
